Our source for the IC50 and EC50 values is patent publication US20250368633A1, “AZEPINE FUSED RING COMPOUND AS RIPK1 INHIBITOR AND USE THEREOF” (ARTIVILA BIOPHARMA, priority 2022, published 2025).

What is called IC50 is the concentration that gives 50% inhibition. Broadly, the EC50 is the concentration that produces a half-maximal response.

One assay has as its target T1, RIPK1 kinase (Homo sapiens, UniProt Q13546).
T1 construct: purchased Promega VA7593
T1 sequence (Q13546 1-671): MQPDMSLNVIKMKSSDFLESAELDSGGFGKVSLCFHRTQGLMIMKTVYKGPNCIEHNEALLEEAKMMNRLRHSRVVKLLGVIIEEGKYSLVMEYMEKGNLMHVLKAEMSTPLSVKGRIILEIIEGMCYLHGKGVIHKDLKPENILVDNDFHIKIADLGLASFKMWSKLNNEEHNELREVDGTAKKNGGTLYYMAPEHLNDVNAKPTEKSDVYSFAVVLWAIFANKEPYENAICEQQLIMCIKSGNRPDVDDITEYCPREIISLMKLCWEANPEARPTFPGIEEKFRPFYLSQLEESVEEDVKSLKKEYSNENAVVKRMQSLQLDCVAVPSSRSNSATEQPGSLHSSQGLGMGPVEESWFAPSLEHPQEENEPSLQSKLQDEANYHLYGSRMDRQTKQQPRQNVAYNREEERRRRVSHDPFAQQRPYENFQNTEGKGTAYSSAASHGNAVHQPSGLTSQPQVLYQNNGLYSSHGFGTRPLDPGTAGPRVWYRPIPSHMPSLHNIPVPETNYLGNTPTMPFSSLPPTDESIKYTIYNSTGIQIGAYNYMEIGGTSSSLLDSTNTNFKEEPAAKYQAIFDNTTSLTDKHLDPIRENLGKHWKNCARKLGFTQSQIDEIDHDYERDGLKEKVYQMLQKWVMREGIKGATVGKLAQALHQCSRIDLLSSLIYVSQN
The assay is described as follows: In vitro RIPK1 kinase activity IC50 assay (ADP-Glo). The format is biochemical. The note with it: ATP 10 μM; MBP substrate 100 μg/mL; 8 concentration points; read-out: IC50 range of compounds for RIPK1 kinase activity. The method, then: RIPK1 kinase activity was assayed using the ADP-Glo assay and RIPK1 kinase reaction system (Promega, catalog number: VA7593). The RIPK1 kinase activity assay was performed according to the Promega kit manual.
The experimental method was briefly described as below. The concentration of RIPK1 kinase in the RIPK1 kinase reaction system was determined by kinase titration and S/B10. The compound was diluted with 1× kinase buffer D (1% DMSO), 1 μL of 1 mM compound DMSO stock solution was added to 19 μL 1× kinase buffer D, and the compound was serially diluted with 1× kinase buffer D at a ratio of 1:5, for a total of 8 concentration points, and a control with the same DMSO volume was set. RIPK1 kinase was diluted with 1× kinase buffer D. 2.5×ATP/substrate was diluted with 1× kinase buffer D. The final concentration of ATP in the kinase reaction system was 10 μM. The final concentration of MBP substrate was 100 μg/mL. 1 μL of diluted compound and 2 μL of diluted RIPK1 kinase were mixed, incubated at room temperature for 15 minutes, 2 μL of 2.5×ATP/substrate was added, mixed, and incubated at room temperature for 1 hour. 5 μL ADP-Glo reagent was added to each well and incubated at room temperature for 1 hour. 10 μL ADP detection reagent was added to each well and incubated at room temperature for another 0.5-1 hour. The chemiluminescent signal was read with a microplate reader and the kinase activity inhibition rate was calculated. IC50 was obtained by fitting the nonlinear regression curve log [inhibitor] vs. response-variable slope (four parameters) in GraphPad Prism.

The next assay deals with U937 cells. The assay is described as follows: EC50 of necroptosis inhibition in U937 cells (TSZ-induced, CellTiter-Glo). Type of assay: cell-based. The note with it: Homo sapiens, U-937; TSZ (hTNF-α, SM-164, Z-VAD-FMK) 20 hours; 10 concentration points; read-out: EC50 intervals of necroptosis inhibition in U937 cells. The gist of the method:
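U937 cells pretreated 15 min with compound (10-point, 1:3 series), then necroptosis induced by TSZ (hTNF-α, SM-164, Z-VAD-FMK) for 20 h at 37 °C. Viability measured as ATP by CellTiter-Glo luminescence; inhibition normalised to untreated and TSZ-only wells, EC50 from four-parameter fit.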
A general note: Cellular ATP, detected with luciferase, serves as a proxy for viable cell number.

`CN1C(=O)[C@@H](NC(=O)C(=O)NCCc2ccc(F)cc2)COc2ccc(C#CCCO)cc21` [Example 35, (S)—N^1-(4-fluorophenethyl)-N^2-(7-(4-hydroxybut-1-yn-1-yl)-5-methyl-4-oxo-2,3,4,5-tetrahydrobenzo[b][1,4]oxazepin-3-yl)oxalamide]: the IC50 on RIPK1 kinase is < 0.1 µM. Moreover, the 50% effective concentration (EC50) in the assay with U937 cells was in the range of 0.1 to 0.5 µM.
`CN1C(=O)[C@@H](NC(=O)C(=O)NCCc2cc(F)cc(F)c2)COc2ccc(C#CCCO)cc21` [Example 36, (S)—N^1-(3,5-difluorophenethyl)-N^2-(7-(4-hydroxybut-1-yn-1-yl)-5-methyl-4-oxo-2,3,4,5-tetrahydrobenzo[b][1,4]oxazepin-3-yl)oxalamide]: the IC50 at RIPK1 kinase is < 0.1 µM. Further, in the assay with U937 cells, the EC50 was < 0.1 µM.
As to `CN1C(=O)[C@@H](NC(=O)C(=O)NCc2cccc(F)c2)COc2ccc(C#CCCO)cc21` [Example 39, (S)—N^1-(3-fluorobenzyl)-N^2-(7-(4-hydroxybut-1-yn-1-yl)-5-methyl-4-oxo-2,3,4,5-tetrahydrobenzo[b][1,4]oxazepin-3-yl)oxalamide], on RIPK1 kinase, the IC50 is < 0.1 µM. The 50% effective concentration (EC50) in the assay on U937 cells was 0.1 to 0.5 µM.
Regarding `CN1C(=O)[C@@H](NC(=O)C(=O)NCc2ccc(F)cc2)COc2ccc(C#CCCO)cc21` [Example 40, (S)—N^1-(4-fluorobenzyl)-N^2-(7-(4-hydroxybut-1-yn-1-yl)-5-methyl-4-oxo-2,3,4,5-tetrahydrobenzo[b][1,4]oxazepin-3-yl)oxalamide], the 50% inhibitory concentration (IC50) on RIPK1 kinase was < 0.1 µM. The EC50 in the assay with U937 cells was < 0.1 µM.
As for `CN1C(=O)[C@@H](NC(=O)C(=O)NCCc2cccc(F)c2)COc2ccc(C#CC(C)(C)O)cc21` [Example 42, (S)—N^1-(3-fluorophenethyl)-N^2-(7-(3-hydroxy-3-methylbut-1-yn-1-yl)-5-methyl-4-oxo-2,3,4,5-tetrahydrobenzo[b][1,4]oxazepin-3-yl)oxalamide], on RIPK1 kinase, the 50% inhibitory concentration (IC50) was < 0.1 µM. In addition, the EC50 in the assay with U937 cells was < 0.1 µM.
Regarding `CN1C(=O)[C@@H](NC(=O)C(=O)NCCc2ccccc2)COc2ccc(C#CC3(O)COC3)cc21` [Example 43, (S)—N^1-(7-((3-hydroxyoxetan-3-yl)ethynyl)-5-methyl-4-oxo-2,3,4,5-tetrahydrobenzo[b][1,4]oxazepin-3-yl)-N^2-phenethyloxalamide], the 50% inhibitory concentration (IC50) on RIPK1 kinase was < 0.1 µM. In the assay with U937 cells, the EC50 was < 0.1 µM.
With `CN1C(=O)[C@@H](NC(=O)C(=O)NCCc2ccccc2)COc2ccc(C#CC3(O)CCCCC3)cc21` [Example 44, (S)—N^1-(7-((1-hydroxycyclohexyl)ethynyl)-5-methyl-4-oxo-2,3,4,5-tetrahydrobenzo[b][1,4]oxazepin-3-yl)-N^2-phenethyloxalamide], the concentration for half-maximal inhibition (IC50) on RIPK1 kinase is < 0.1 µM. The half-maximal effective concentration (EC50) in the assay with U937 cells is < 0.1 µM.
Consider `C/C(C#Cc1ccc2c(c1)N(C)C(=O)[C@@H](NC(=O)C(=O)NCCc1ccccc1)CO2)=C/CO` [Example 45, (S,Z)-N^1-(7-(5-hydroxy-3-methylpent-3-en-1-yn-1-yl)-5-methyl-4-oxo-2,3,4,5-tetrahydrobenzo[b][1,4]oxazepin-3-yl)-N^2-phenethyloxalamide], for which the IC50 at RIPK1 kinase was < 0.1 µM. In addition, the half-maximal effective concentration (EC50) in the assay with U937 cells is < 0.1 µM.
With `CN1C(=O)[C@@H](NC(=O)C(=O)NCCc2ccccc2)COc2ccc(C#CCN3CCC(O)C3)cc21` (stereo partly drawn) [Example 46, N^1-((3S)-7-(3-(3-hydroxypyrrolidin-1-yl)prop-1-yn-1-yl)-5-methyl-4-oxo-2,3,4,5-tetrahydrobenzo[b][1,4]oxazepin-3-yl)-N^2-phenethyloxalamide], on RIPK1 kinase, the half-maximal inhibitory concentration (IC50) was < 0.1 µM. The 50% effective concentration (EC50) with U937 cells is < 0.1 µM.
Turning to `CN1C(=O)[C@@H](NC(=O)C(=O)NCCc2ccccc2)COc2ccc(C#CCN3CCC(=O)CC3)cc21` [Example 47, (S)—N^1-(5-methyl-4-oxo-7-(3-(4-oxopiperidin-1-yl)prop-1-yn-1-yl)-2,3,4,5-tetrahydrobenzo[b][1,4]oxazepin-3-yl)-N^2-phenethyloxalamide], the IC50 on RIPK1 kinase was < 0.1 µM. In addition, in the assay with U937 cells, the 50% effective concentration (EC50) was < 0.1 µM.
Turning to `CN1C(=O)[C@@H](NC(=O)C(=O)NCCc2ccccc2)COc2ccc(C#CCN3CCOCC3)cc21` [Example 48, (S)—N^1-(5-methyl-7-(3-morpholinoprop-1-yn-1-yl)-4-oxo-2,3,4,5-tetrahydrobenzo[b][1,4]oxazepin-3-yl)-N^2-phenethyloxalamide], the IC50 on RIPK1 kinase is < 0.1 µM. Further, the EC50 in the assay on U937 cells was < 0.1 µM.
Regarding `CN1C(=O)[C@@H](NC(=O)C(=O)NCCc2ccccc2)COc2ccc(C#CCCN)cc21` [Example 50, (S)—N^1-(7-(4-aminobut-1-yn-1-yl)-5-methyl-4-oxo-2,3,4,5-tetrahydrobenzo[b][1,4]oxazepin-3-yl)-N^2-phenethyloxalamide], the 50% inhibitory concentration (IC50) at RIPK1 kinase was < 0.1 µM. Besides, the EC50 with U937 cells is < 0.1 µM.
Regarding `CN1C(=O)[C@@H](NC(=O)C(=O)NCCc2ccccc2)COc2ccc(C#CCCNS(C)(=O)=O)cc21` [Example 51, (S)—N^1-(5-methyl-7-(4-(methylsulfonamido)but-1-yn-1-yl)-4-oxo-2,3,4,5-tetrahydrobenzo[b][1,4]oxazepin-3-yl)-N^2-phenethyloxalamide], the IC50 on RIPK1 kinase was < 0.1 µM. Also, in the assay with U937 cells, the concentration for a half-maximal effect (EC50) is < 0.1 µM.
With `COCC#Cc1ccc2c(c1)N(C)C(=O)[C@@H](NC(=O)C(=O)NCCc1ccccc1)CO2` [Example 52, (S)—N^1-(7-(3-methoxyprop-1-yn-1-yl)-5-methyl-4-oxo-2,3,4,5-tetrahydrobenzo[b][1,4]oxazepin-3-yl)-N^2-phenethyloxalamide], the concentration for half-maximal inhibition (IC50) at RIPK1 kinase was < 0.1 µM. For the same compound, the EC50 in the assay on U937 cells is < 0.1 µM.
As to `CN1C(=O)C(NC(=O)C(=O)NCCc2ccccc2)CCc2ccc(Br)cc21` (stereo not shown) [Example 61, N^1-(8-bromo-1-methyl-2-oxo-2,3,4,5-tetrahydro-1H-benzo[b]azepin-3-yl)-N^2-phenethyloxalamide], the 50% inhibitory concentration (IC50) on RIPK1 kinase was < 0.1 µM. Further, in the assay on U937 cells, the 50% effective concentration (EC50) is < 0.1 µM.
Regarding `CN1C(=O)C(NC(=O)C(=O)NCCc2ccccc2)CCc2ccc(C#CC3CC3)cc21` (stereo not shown) [Example 62, N^1-(8-(cyclopropylethynyl)-1-methyl-2-oxo-2,3,4,5-tetrahydro-1H-benzo[b]azepin-3-yl)-N^2-phenethyloxalamide], the 50% inhibitory concentration (IC50) at RIPK1 kinase is < 0.1 µM. Besides, the EC50 in the assay on U937 cells was < 0.1 µM.
Take `CN1C(=O)C(NC(=O)C(=O)NCCc2ccccc2)CCc2ccc(C#CCCO)cc21` (stereo not shown) [Example 65, N^1-(8-(4-hydroxybut-1-yn-1-yl)-1-methyl-2-oxo-2,3,4,5-tetrahydro-1H-benzo[b]azepin-3-yl)-N^2-phenethyloxalamide]: the half-inhibitory concentration (IC50) on RIPK1 kinase was < 0.1 µM. For the same compound, in the assay with U937 cells, the EC50 is < 0.1 µM.
As for `CN1C(=O)C(NC(=O)C(=O)NCCc2ccccc2)CCc2ccc(C#CC3CCNCC3)cc21` (stereo not shown) [Example 66, N^1-(1-methyl-2-oxo-8-(piperidin-4-ylethynyl)-2,3,4,5-tetrahydro-1H-benzo[b]azepin-3-yl)-N^2-phenethyloxalamide], the half-maximal inhibitory concentration (IC50) on RIPK1 kinase is < 0.1 µM. Moreover, the half-maximal effective concentration (EC50) in the assay on U937 cells is < 0.1 µM.
For `CN1C(=O)[C@@H](NC(=O)C(=O)NCCc2ccccc2)COc2ccc(C#CC3CCN(CC#N)CC3)cc21` [Example 74, (S)—N^1-(7-((1-(cyanomethyl)piperidin-4-yl)ethynyl)-5-methyl-4-oxo-2,3,4,5-tetrahydrobenzo[b][1, 4]oxazepin-3-yl)-N^2-phenethyloxalamide], at RIPK1 kinase, the IC50 was < 0.1 µM. Besides, the half-maximal effective concentration (EC50) in the assay with U937 cells is < 0.1 µM.
In the case of `CN1C(=O)[C@@H](NC(=O)C(=O)NCCc2ccccc2)COc2ccc(C#CC3COC3)cc21` [Example 76, (S)—N^1-(5-methyl-7-(oxetan-3-ylethynyl)-4-oxo-2,3,4,5-tetrahydrobenzo[b][1,4]oxazepin-3-yl)-N^2-phenethyloxalamide], on RIPK1 kinase, the IC50 was < 0.1 µM. Also, in the assay on U937 cells, the EC50 is < 0.1 µM.
